In series [1] the target is T1, motilin receptor (Oryctolagus cuniculus, UniProt G1T803).
T1 construct: from tissue; host or cells: rabbit antral smooth muscle membranes
Put plainly: Determination of motilin receptor binding affinity (displacement of [125I-Tyr7, Nle13]motilin(porcine)). Further details: species or system rabbit. The note with it: for IC50: negative logarithm of the concentration displacing 50% of [125I-Tyr7, Nle13]motilin(porcine) from rabbit antral smooth muscle membranes, read-out: pIC50 (converted). As for the experimental part:
The motilin receptor binding affinity of the peptides of this invention was determined by using the general procedure of Bormans, Peelers and Vantrappen, Regul. […] Fitting was performed using the iterative least-squares procedure of the SAS-software package (SAS Institute, Inc., Cary, N.C., USA).

Series [2] deals with segments of rabbit duodenum (Oryctolagus cuniculus, UniProt G1T803). Put plainly: Rabbit duodenal smooth muscle strip tissue bath assay. The format is cell-based. The note with it: negative logarithm of the dose giving 50% of the maximal response to motilin; isotonic contraction of rabbit duodenum segments. In outline:
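Isotonic contraction of rabbit duodenal segments after 1 h equilibration and 10^-4 M acetylcholine challenge; cumulative compound curve over 10^-11 to 10^-4 M, then 10^-7 M motilin. Runs discarded if final acetylcholine response differed >5%. EC50 at 50% of maximal motilin response, reported as pEC50.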

Series [3] is classed as in vitro ADME, hog. The note with it: pH 7. As for the experimental part:
Like most small linear polypeptides, motilin is believed to be metabolized lo by the brush border cells of the kidney. Therefore, kidney homogenate was chosen as the model system for assessing the relative in vivo biostability of the peptides of this invention. All peptides to be studied were incubated in hog kidney (Pel Freeze, Inc., Rogers, Ark.) (2% w/v; final volume=4 ml; buffer=HEPES pH 7.0) at 25° C. Both initial substrate concentration and internal standard (Fmoc-Gly) concentration were 0.5 mg/ml. In order to determine suitable incubation times and sampling intervals, two experiments were conducted with each polypeptide. The first run served as a rough estimate of peptide stability. All sampling was performed in duplicate. Sample volume was 180 μl.
Sample clean-up was performed by addition of 20 μl of 100% TCA (final volume=200 μl; final TCA concentration=10%). The sample was vortexed for from 5 to 10 seconds to ensure equilibration, then centrifuged to spin out the precipitated proteins. Analysis was carried out on a Waters HPLC system with a WISP autoinjector, a 5μ Vydac C-18 analytical column, and a Waters 481 UV detector set at 214 nm. Injection volume was 80 μl. Initial solvent conditions were […] in Milli-Q water with a 35 minute gradient running to 63% acetonitrile/37% (0.1%) TFA at 1 ml/min.
Polypeptide substrate and metabolite peaks were ratioed to the internal standard and the duplicate sample ratios were averaged. The avenge ratio for the peptide substrate was expressed as a percentage and plotted versus time. First-order kinetics was assumed for data treatment. The rate of disappearance of the substrate was calculated using the Enzfitter program (Biosoft). Relative half-lives were determined from the relationship: […]

The subject of series [4] is canine gastrointestinal tract. The series can be described thus: Contractile activity in the canine gastrointestinal tract. The format is in vivo, dog. The note with it: anesthetized dogs, intra-arterial injection to a duodenal segment; amount giving 50% of the calibration response to field stimulation.
The conditions of series [5]: in vivo; cited from earlier work.

Square brackets hold non-standard residues; d marks the D form. Ends that are not written are not given here. Peptide text beside a SMILES is read from it. NMeF = CN[C@@H](Cc1ccccc1)C(=O)O

T1 sequence (G1T803 1-400): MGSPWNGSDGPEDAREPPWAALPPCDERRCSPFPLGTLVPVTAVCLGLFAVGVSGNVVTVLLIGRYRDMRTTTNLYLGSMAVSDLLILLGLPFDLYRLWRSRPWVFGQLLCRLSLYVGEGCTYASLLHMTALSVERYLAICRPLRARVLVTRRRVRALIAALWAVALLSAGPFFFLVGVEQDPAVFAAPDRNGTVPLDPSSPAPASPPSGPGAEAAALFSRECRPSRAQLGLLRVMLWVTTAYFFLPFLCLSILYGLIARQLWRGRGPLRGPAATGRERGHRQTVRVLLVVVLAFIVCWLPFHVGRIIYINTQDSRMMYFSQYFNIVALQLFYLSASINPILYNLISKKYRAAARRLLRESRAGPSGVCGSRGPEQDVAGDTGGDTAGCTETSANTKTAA
Sequence of segments of rabbit duodenum (G1T803 1-400): as above

With `CC[C@H](C)[C@H](NC(=O)[C@@H]1CCCN1C(=O)[C@@H](NC(=O)[C@H](Cc1ccccc1)NC)C(C)C)C(=O)N[C@@H](Cc1ccccc1)C(=O)N[C@H](C(=O)N[C@@H](Cc1ccc(O)cc1)C(=O)NCC(=O)N[C@@H](CCC(=O)O)C(=O)N[C@@H](CC(C)C)C(=O)N[C@@H](CCC(N)=O)C(=O)N[C@H](CCCNC(=N)N)C(=O)N[C@@H](CC(C)C)C(=O)N[C@@H](CCC(N)=O)C(=O)O)[C@@H](C)O` [[N-MePhe^1, D-Arg^12, Leu^13]pMOT(1-14)] (H-[NMeF]VPIFTYGELQ[dR]LQ-OH), the IC50 in series [1] was 1.91 nM. The compound also yielded a pEC50 in series [2] of 7.71. In series [3], this compound displayed a T1/2 of 30. The compound further came in with an ED50 in series [4] of 0.40 nmol.
In series [1], `CC[C@H](C)[C@H](NC(=O)[C@@H]1CCCN1C(=O)[C@@H](NC(=O)[C@@H](N)Cc1ccccc1)C(C)C)C(=O)N[C@@H](Cc1ccccc1)C(=O)N[C@H](C(=O)N[C@@H](Cc1ccc(O)cc1)C(=O)NCC(=O)N[C@@H](CCC(=O)O)C(=O)N[C@@H](CC(C)C)C(=O)N[C@@H](CCC(N)=O)C(=O)N[C@@H](CCCNC(=N)N)C(=O)N[C@@H](CCSC)C(=O)N[C@@H](CCC(N)=O)C(=O)N[C@@H](CCC(=O)O)C(=O)N[C@@H](CCCCN)C(=O)N[C@@H](CCC(=O)O)C(=O)N[C@@H](CCCNC(=N)N)C(=O)N[C@@H](CC(N)=O)C(=O)N[C@@H](CCCCN)C(=O)NCC(=O)N[C@@H](CCC(N)=O)C(=O)O)[C@@H](C)O` [motilin] showed a Kd of 0.759 nM. The “half-life (t1/2)” value in series [5] is 4.5 min.
Take “FVPIFTYGELQRLQ [[Leu^13]pMOT(1-14), reference compound]”: the IC50 in series [1] was 4.37 nM. The same compound came in with a pEC50 in series [2] of 7.55. In addition, the T1/2 in series [3] is listed as 7.5. For the same compound, the ED50 in series [4] was 20.4 nmol.

The values are drawn from patent publication US5422341A, “Motilin-like polypeptides with gastrointestinal motor stimulating activity” (Ohmeda Pharmaceutical Products Division Inc., priority 1993, dated 1995).
